Laboratory results as given in US8716237B2, “Methods for the treatment or prevention of hemorrhagic conditions” (University of Rochester, priority 2007, dated 2014).

What was measured:
PAI-1 [1] = test: PAI-1 mRNA expression in mouse embryonic fibroblasts (Q-PCR); assay type: cell-based; details: Cyld−/− MEF cells; pretreatment with SB203580
Method: (§1) Cells were cultured on 12-well plates and transfected with various expression plasmids, as described in Examples 1-15 and the Brief Description of the Drawings. All transient transfections were carried out in triplicate using TransIT-LT1 reagent (Minis) following the manufacturer's instructions. […] Transfected cells were pretreated with or without chemical inhibitors including SB203580 (1 μM) for 2 hours. S.p. or pneumolysin was then added to the transfected cells 42 hours after transfection. After 5 hours, the cells were harvested for either RNA extraction and real-time quantitative PCR analysis as described in the Examples or luciferase assay. Luciferase activity was normalized with respect to β-galactosidase activity using the Galacton-Plus substrate system (Tropix) following manufacturer's instruction. In all co-transfections with expression plasmids of signaling molecules, an empty vector was used as a control. […]
Total RNA was isolated with TRIzol reagent (Invitrogen) by following the manufacturer's instructions. Real-Time Quantitative RT-PCR analysis of PAI-1 and CYLD were performed as described in Jono et al., “NF-κB Is Essential for Induction of CYLD, the Negative Regulator of NF-κB: Evidence for a Novel Inducible Autoregulatory Feedback Pathway,” J. Biol. Chem. 279:36171-4 (2004), which is hereby incorporated by reference in its entirety. […]

PAI-1 [2] = test: PAI-1 mRNA expression in A549 cells (Q-PCR); assay type: cell-based, human; details: SB203580 pretreatment (1 μM, 2 hours)
Method: as §1, with “assay.” for “assay. Luciferase activity was normalized with respect to β-galactosidase activity using the Galacton-Plus substrate system (Tropix) following manufacturer's instruction. In all co-transfections with expression plasmids of signaling molecules, an empty vector was used as a control.”
Total RNA was isolated with TRIzol reagent (Invitrogen) by following the manufacturer's instructions. Real-Time Quantitative RT-PCR analysis of PAI-1 and CYLD were performed as described in Jono et al., “NF-κB Is Essential for Induction of CYLD, the Negative Regulator of NF-κB: Evidence for a Novel Inducible Autoregulatory Feedback Pathway,” J. Biol. Chem. 279:36171-4 (2004), which is hereby incorporated by reference in its entirety. […] Relative quantity of PAI-1 mRNA was obtained using comparative CT Method and was normalized by Cyclophilin and GAPDH as an endogenous control for human and mouse, respectively (Applied Biosystems).

C[S+]([O-])c1ccc(-c2nc(-c3ccncc3)c(-c3ccc(F)cc3)[nH]2)cc1 (stereo not drawn) [SB203580]
PAI-1 expression in cells treated with PLY (PAI-1 [1]): reduced PAI-1 expression
PAI-1 expression in cells treated with S. pneumoniae (PAI-1 [1]): reduced PAI-1 expression
S. pneumoniae-induced PAI-1 expression (PAI-1 [2]): greatly reduced S. pneumoniae-induced PAI-1 expression
